{"source": "patent US20260034111A1", "about": "“NOVEL HETEROCYCLES AS sPLA2-X INHIBITORS” (Cayman Chemical Company Incorporated, priority 2022, published 2026)", "key": {"[1]": {"target": "T1, sPLA2-X protein (Homo sapiens, UniProt O15496)", "T1 sequence (O15496 43-165)": "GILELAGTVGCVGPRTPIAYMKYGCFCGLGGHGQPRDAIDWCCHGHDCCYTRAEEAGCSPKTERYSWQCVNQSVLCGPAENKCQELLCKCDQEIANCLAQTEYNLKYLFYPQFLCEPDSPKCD", "assay": "sPLA2-X enzyme inhibition assay (thio-PC substrate, DTNB detection, absorbance 410 nm)", "format": "biochemical", "parameters": "made in house; host or cells: E. coli", "conditions": "class symbols"}, "[2]": {"target": "T1, sPLA2-X protein", "assay": "SPR single cycle kinetic binding analysis against sPLA2-X", "parameters": "His tag (implied by capture on NTA surface and by anti-His antibody)", "conditions": "protein captured cross-linked on NTA surface, 1:1 fit", "procedure": "sPLA2-X protein was captured on flow cell 2-4 on activated NTA surface (NTA Series S Sensorchip (Cytiva)) after dilution in 1×HBS-EP+buffer (Cytiva), 10 mM CaCl2 to 0.01 mg/mL with a flow rate of 5 μL/min for 60 sec. Single cycle kinetic binding analysis was performed using 10 mM stock solution of LY531590 (Cayman Chemical, item #18267) (prepared in DMSO diluted 1:5 in running buffer (lx HBS-EP+buffer (Cytiva)+10 mM CaCl2+2% DMSO) from 10 to 0.016 μM. Flow cell 1 was used as a reference surface and 350 mM EDTA (Cytiva) was used to regenerate the surface. DMSO solvent correction was included. A 1:1 fit was used for the kinetics analysis.\nSPLA2-X protein was captured cross-linked on flow cell 2, 3, and 4 with activated NTA surface (NTA Series S Sensorchip (Cytiva)) at 0.01 mg/mL with a flow rate of […] for 60 sec. Single cycle kinetic binding analysis was performed using a 50 mM stock solution of Compound 5 (prepared in DMSO) diluted 1:5 in running buffer (1×HIBS-EP+buffer (Cytiva)+10 mM CaCl2+2% o DMSO) from 800 to 1.2 nMV. Flow cell 1 was used as a reference surface. DMSO solvent correction was included. A 1:1 fit was used for the kinetics and steady state affinity analysis."}, "[3]": {"target": "T2, recombinant human sPLA2-V enzyme (Homo sapiens, UniProt P39877)", "T2 construct": "made in house; host or cells: E. coli", "T2 sequence (P39877 21-138)": "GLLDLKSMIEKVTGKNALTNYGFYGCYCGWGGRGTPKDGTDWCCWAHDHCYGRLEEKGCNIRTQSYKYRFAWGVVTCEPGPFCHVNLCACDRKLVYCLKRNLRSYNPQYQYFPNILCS", "assay": "sPLA2-V enzyme inhibition assay (thio-PC substrate, DTNB detection, absorbance 410 nm)", "format": "biochemical", "conditions": "class symbols"}, "[4]": {"target": "T3, recombinant human sPLA2-IIA enzyme (Homo sapiens, UniProt P14555)", "T3 construct": "made in house; host or cells: E. coli", "T3 sequence (P14555 21-144)": "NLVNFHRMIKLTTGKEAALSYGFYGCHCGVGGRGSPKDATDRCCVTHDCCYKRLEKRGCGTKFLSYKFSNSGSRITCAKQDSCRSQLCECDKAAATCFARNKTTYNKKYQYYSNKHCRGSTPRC", "assay": "sPLA2-IIA enzyme inhibition assay (thio-PC substrate, DTNB detection, absorbance 410 nm)", "format": "biochemical", "conditions": "class symbols"}, "[5]": {"conditions": "read-out: sPLA2 Type X Inhibition (IC50; nM)"}, "[6]": {"conditions": "read-out: sPLA2 Type V Inhibition (IC50; nM)"}, "[7]": {"conditions": "read-out: sPLA2 Type IIa Inhibition (IC50; nM)"}}, "note": "Where a name gives a salt, the structure may show the parent alone. Read-outs that look alike come from different tables or passages of the source."}
{"smiles": "NC(=O)c1sc2ccc(OC(F)(F)F)cc2c1-c1cccc(CCC(=O)O)c1", "note": "[Compound 5, 3-(3-(2-carbamoyl-5-(trifluoromethoxy)benzo[b]thiophen-3-yl)phenyl)propanoic acid]", "values": [{"measurement": "IC50", "setting": "[1]; [5]", "value": "20 to 50", "unit": "nM"}, {"measurement": "Rmax", "setting": "[2]", "value": 2.13}, {"measurement": "Kd", "setting": "[2]; kinetics and steady state affinity", "value": 8.02, "unit": "nM"}, {"measurement": "IC50", "setting": "[3]; [6]", "value": "1500 to 5000", "unit": "nM"}, {"measurement": "IC50", "setting": "[4]; [7]", "value": "200 to 500", "unit": "nM"}]}
{"smiles": "CS(=O)(=O)OCC(F)(F)c1cccc(-n2c(C(N)=O)cc3ccc(OC(F)(F)F)cc32)c1", "note": "[Compound 47, 2-(3-(2-carbamoyl-6-(trifluoromethoxy)-1H-indol-1-yl)phenyl)-2,2-difluoroethyl methanesulfonate]", "values": [{"measurement": "IC50", "setting": "[1]; [5]", "value": "> 200", "unit": "nM"}, {"measurement": "IC50", "setting": "[3]; [6]", "value": "> 5000", "unit": "nM"}, {"measurement": "IC50", "setting": "[4]; [7]", "value": "> 1000", "unit": "nM"}]}
{"smiles": "CC(C)(C)OC(=O)NC1(c2cccc(-n3c(C(N)=O)cc4ccc(OC(F)(F)F)cc43)n2)CCC1", "note": "[Compound 48, tert-butyl (1-(6-(2-carbamoyl-6-(trifluoromethoxy)-1H-indol-1-yl)pyridin-2-yl)cyclobutyl)carbamate]", "values": [{"measurement": "IC50", "setting": "[1]; [5]", "value": "> 200", "unit": "nM"}, {"measurement": "IC50", "setting": "[3]; [6]", "value": "> 5000", "unit": "nM"}, {"measurement": "IC50", "setting": "[4]; [7]", "value": "> 1000", "unit": "nM"}]}
{"smiles": "NC(=O)c1cc2ccc(OC(F)(F)F)cc2n1-c1cccc(C2(N)CCC2)n1", "note": "[Compound 49, 1-(6-(1-aminocyclobutyl)pyridin-2-yl)-6-(trifluoromethoxy)-1H-indole-2-carboxamide TFA salt]", "values": [{"measurement": "IC50", "setting": "[1]; [5]", "value": "> 200", "unit": "nM"}, {"measurement": "IC50", "setting": "[3]; [6]", "value": "> 5000", "unit": "nM"}, {"measurement": "IC50", "setting": "[4]; [7]", "value": "> 1000", "unit": "nM"}]}
{"smiles": "NC(=O)c1cc2ccc(OC(F)(F)F)cc2n1-c1cccc(C2(NCC(=O)O)CCC2)n1", "note": "[Compound 50, (1-(6-(2-carbamoyl-6-(trifluoromethoxy)-1H-indol-1-yl)pyridin-2-yl)cyclobutyl)glycine]", "values": [{"measurement": "IC50", "setting": "[1]; [5]", "value": "20 to 50", "unit": "nM"}, {"measurement": "IC50", "setting": "[3]; [6]", "value": "> 5000", "unit": "nM"}, {"measurement": "IC50", "setting": "[4]; [7]", "value": "> 1000", "unit": "nM"}]}
{"smiles": "NC(=O)c1cc2ccc(OC(F)(F)F)cc2n1-c1cccc(N2CC(C(=O)O)C2)n1", "note": "[Compound 52, 1-(6-(2-carbamoyl-6-(trifluoromethoxy)-1H-indol-1-yl)pyridin-2-yl)azetidine-3-carboxylic acid]", "values": [{"measurement": "IC50", "setting": "[1]; [5]", "value": "50 to 200", "unit": "nM"}, {"measurement": "IC50", "setting": "[3]; [6]", "value": "1500 to 5000", "unit": "nM"}, {"measurement": "IC50", "setting": "[4]; [7]", "value": "> 1000", "unit": "nM"}]}
{"smiles": "NC(=O)c1cc2ccc(OC(F)(F)F)cc2n1-c1cncc(CCC(=O)O)c1", "note": "[Compound 53]", "values": [{"measurement": "IC50", "setting": "[1]; [5]", "value": "50 to 200", "unit": "nM"}, {"measurement": "IC50", "setting": "[3]; [6]", "value": "> 5000", "unit": "nM"}, {"measurement": "IC50", "setting": "[4]; [7]", "value": "> 1000", "unit": "nM"}]}
{"smiles": "NC(=O)c1sc2ccc(OC(F)(F)F)cc2c1-c1cccc(C2CC2C(=O)O)n1", "note": "(stereo not drawn) [Compound 56, trans-2-(6-(2-carbamoyl-5-(trifluoromethoxy)benzo[b]thiophen-3-yl)pyridin-2-yl)cyclopropane-1-carboxylic acid]", "values": [{"measurement": "IC50", "setting": "[1]; [5]", "value": "< 20", "unit": "nM"}, {"measurement": "IC50", "setting": "[3]; [6]", "value": "> 5000", "unit": "nM"}, {"measurement": "IC50", "setting": "[4]; [7]", "value": "> 1000", "unit": "nM"}]}
{"smiles": "NC(=O)c1[se]c2ccc(OC(F)(F)F)cc2c1-c1cccc(C2CC2C(=O)O)n1", "note": "(stereo not drawn) [Compound 57, trans-2-(6-(2-carbamoyl-5-(trifluoromethoxy)benzo[b]selenophen-3-yl)pyridin-2-yl)cyclopropane-1-carboxylic acid]", "values": [{"measurement": "IC50", "setting": "[1]; sPLA2 Type X Inhibition (IC50; nM)", "value": "50 to 200", "unit": "nM"}, {"measurement": "IC50", "setting": "[3]; sPLA2 Type V Inhibition (IC50; nM)", "value": "> 5000", "unit": "nM"}, {"measurement": "IC50", "setting": "[4]; sPLA2 Type IIa Inhibition (IC50; nM)", "value": "> 1000", "unit": "nM"}]}
{"smiles": "NC(=O)c1nc2ccc(OC(F)(F)F)cc2n1-c1cccc(C2CC2C(=O)O)n1", "note": "(stereo not drawn) [Compound 58, trans-2-(6-(2-carbamoyl-6-(trifluoromethoxy)-1H-benzo[d]imidazol-1-yl)pyridin-2-yl)cyclopropane-1-carboxylic acid]", "values": [{"measurement": "IC50", "setting": "[1]; [5]", "value": "> 200", "unit": "nM"}, {"measurement": "IC50", "setting": "[3]; [6]", "value": "> 5000", "unit": "nM"}, {"measurement": "IC50", "setting": "[4]; [7]", "value": "> 1000", "unit": "nM"}]}
{"smiles": "NC(=O)c1cc2ccc(OC(F)(F)F)cc2n1-c1cccc(C2(CC(=O)O)CC2)n1", "note": "[Compound 59, 2-(1-(6-(2-carbamoyl-6-(trifluoromethoxy)-1H-indol-1-yl)pyridin-2-yl)cyclopropyl)acetic acid]", "values": [{"measurement": "IC50", "setting": "[1]; [5]", "value": "< 20", "unit": "nM"}, {"measurement": "IC50", "setting": "[3]; [6]", "value": "> 5000", "unit": "nM"}, {"measurement": "IC50", "setting": "[4]; [7]", "value": "> 1000", "unit": "nM"}]}
{"smiles": "CC(C)(CC(=O)O)c1cccc(-n2c(C(N)=O)cc3ccc(OC(F)(F)F)cc32)n1", "note": "[Compound 62, 3-(6-(2-carbamoyl-6-(trifluoromethoxy)-1H-indol-1-yl)pyridin-2-yl)-3-methylbutanoic acid]", "values": [{"measurement": "IC50", "setting": "[1]; [5]", "value": "20 to 50", "unit": "nM"}, {"measurement": "IC50", "setting": "[3]; [6]", "value": "1500 to 5000", "unit": "nM"}, {"measurement": "IC50", "setting": "[4]; [7]", "value": "> 1000", "unit": "nM"}]}
{"smiles": "NC(=O)c1cc2ccc(OC(F)(F)F)cc2n1-c1cccc(N2CC(F)(F)C2)n1", "note": "[Compound 68, 1-(6-(3,3-difluoroazetidin-1-yl)pyridin-2-yl)-6-(trifluoromethoxy)-1H-indole-2-carboxamide]", "values": [{"measurement": "IC50", "setting": "[1]; [5]", "value": "50 to 200", "unit": "nM"}, {"measurement": "IC50", "setting": "[3]; [6]", "value": "> 5000", "unit": "nM"}, {"measurement": "IC50", "setting": "[4]; [7]", "value": "> 1000", "unit": "nM"}]}
{"smiles": "NC(=O)c1cc2ccc(OC(F)(F)F)cc2n1-c1cccc(N2CC[C@H]2C(=O)O)n1", "note": "[Compound 69, (S)-1-(6-(2-carbamoyl-6-(trifluoromethoxy)-1H-indol-1-yl)pyridin-2-yl)azetidine-2-carboxylic acid]", "values": [{"measurement": "IC50", "setting": "[1]; [5]", "value": "> 200", "unit": "nM"}, {"measurement": "IC50", "setting": "[3]; [6]", "value": "> 5000", "unit": "nM"}, {"measurement": "IC50", "setting": "[4]; [7]", "value": "> 1000", "unit": "nM"}]}
{"smiles": "NC(=O)c1cc2ccc(OC(F)(F)F)cc2n1-c1cccc(N2CC[C@@H]2C(=O)O)n1", "note": "[Compound 70, (R)-1-(6-(2-carbamoyl-6-(trifluoromethoxy)-1H-indol-1-yl)pyridin-2-yl)azetidine-2-carboxylic acid]", "values": [{"measurement": "IC50", "setting": "[1]; [5]", "value": "< 20", "unit": "nM"}, {"measurement": "IC50", "setting": "[3]; [6]", "value": "500 to 1500", "unit": "nM"}, {"measurement": "IC50", "setting": "[4]; [7]", "value": "> 1000", "unit": "nM"}]}
